In PMC2504689 (Phytotherapy research : PTR, 2008):
Values after ≈ are worked out from the molar mass of the structure shown.

Key:
[1] = format: cell-based, African green monkey; settings: African green monkey
[2] = tested on: Mycobacterium tuberculosis (H37Rv and ERDMAN); assay: MABA, result stated for both strains without assignment; format: cell-based
[3] = tested on: M. tuberculosis Erdman (ATCC 35801); assay: Microplate Alamar Blue Assay; format: cell-based, Mycobacterium tuberculosis; settings: for MIC, Erdman: MABA, concentration giving ≥ 90% inhibition, 7 days, 37 °C, triplicate; for SI (selectivity index = IC50/MIC), Erdman: Vero IC50 / MIC Erdman, limited by 120 μg/ml cytotoxicity cutoff
[4] = tested on: M. tuberculosis H37Rv (ATCC 27294); assay: Microplate Alamar Blue Assay; format: cell-based, Mycobacterium tuberculosis; settings: for MIC, H37Rv: MABA, concentration giving ≥ 90% inhibition, 7 days, 37 °C, triplicate; for SI (selectivity index = IC50/MIC), H37Rv: Vero IC50 / MIC H37Rv, limited by 120 μg/ml cytotoxicity cutoff
[5] = tested on: Vero cells; format: cell-based, African green monkey; settings: Vero cells, 72 hours; cutoff 120 μg/ml

| SMILES | IC50 at 72 h [1] [µg/mL] | MIC [2] [µg/mL] | MIC, Erdman [3] | SI (selectivity index = IC50/MIC), Erdman [3] | MIC, H37Rv [4] | SI (selectivity index = IC50/MIC), H37Rv [4] | Cytotoxicity IC50 [5] [µg/mL] |
| --- | --- | --- | --- | --- | --- | --- | --- |
| C=C[C@@H](O)C#CC#C[C@@H](O)/C=C\CCCCCCC [Compound 1, falcarindiol] | > 120 | 1.4 to 26.7 (≈ 5.38 to 103 µM) | 6.0 µg/mL (≈ 23 µM) | >19 | 26.7 µg/mL (≈ 103 µM) | >4 | – |
| C=CC(O)C#CC#CC(O)/C=C\CCCCCCCCOC(C)=O (stereo not drawn) [Compound 2, 9Z,17-octadecadiene-12,14-diyne-1,11,16-triol,1-acetate] | – | – | 1.4 µg/mL (≈ 4.21 µM) | > 100 | 25.3 µg/mL (≈ 76.1 µM) | >4 | >120 |
| CCCCCCC/C=C\[C@H](O)C#CC#C[C@@H](O)CC [Compound 3, oplopandiol] | > 120 | – | 49.5 µg/mL (≈ 189 µM) | >2 | 50.2 µg/mL (≈ 191 µM) | >2 | – |
| C=CC(O)C#CC#CC(O)C1OC1CCCCCCC (stereo not drawn) [Compound 4, heptadeca-1-ene-9,10-epoxy-4,6-diyne-3,8-diol] | – | – | – | – | – | – | >120 |
| CCCCCCC/C=C\C(O)C#CC#CC(=O)CCOC (stereo not drawn) [Compound 5, 8-hydroxy-1-methoxy-(Z)-9-heptadecene-4,6-diyn-3-one] | > 120 | > 60 | above 60 μg/mL | – | above 60 μg/mL | – | – |
| CO[C@H]1/C=C/O[C@@]2(C)Oc3c(C)c(O)c4c(O)c(c(/C=N/N5CCN(C)CC5)c(O)c4c3C2=O)NC(=O)/C(C)=C\C=C\[C@H](C)[C@H](O)[C@@H](C)[C@@H](O)[C@@H](C)[C@H](OC(C)=O)[C@@H]1C [RMP, Rifampin, reference compound] | 112 (≈ 136 µM) | – | – | 2232 | – | 1860 | – |
